The numbers were not newly measured in EP0769503A2, “A heparin complex and medical device having such substance” (priority 1995, dated 1997), which cites them from elsewhere.

The subject of the series is rat. The conditions noted are these: oral administration to rat.

For “Benzalkonium dimethylammonium (C8-C18) chloride”, the LD50 (commonly the dose expected to kill half of the subjects tested) is reported as 445 mg/kg.
Regarding `CCCCCCCCCCCCCCCCCC[N+](C)(C)CCCCCCCCCCCCCCCCCC.[Cl-]` [Distearyldimethylammonium chloride], the LD50 is 11300 mg/kg.
Regarding `CCCCCCCCCCCC[N+](C)(C)Cc1ccccc1.[Cl-]` [Laurylbenzyldimethylammonium chloride], the LD50 was >500 mg/kg.
In the case of `CCCCCCCCCCCCCCCCCC[N+](C)(C)Cc1ccccc1.[Cl-]` [Stearylbenzyldimethylammonium chloride], the median lethal dose (LD50) is reported as 1250 mg/kg.
Regarding `CCCCCCCCCCCCCCCC[N+](C)(C)C.[Cl-]` [Trimethylhexadecylammonium chloride], the LD50 was 250 to 300 mg/kg.
`CCCCCCCCCCCCCCCCCC[N+](C)(C)C.[Cl-]` [Trimethyloctadecylammonium chloride]: the LD50 is recorded as 1000 mg/kg.
